From ChEMBL document CHEMBL5136976, “A Perspective on Medicinal Chemistry Approaches for Targeting Pyruvate Kinase M2” (J Med Chem, 2022)

target: Pyruvate kinase PKM (Homo sapiens) (UniProt P14618); assay: Inhibition of recombinant PKM2 (unknown origin) Asp178, Asp177, Ser362, Lys367, Hie78, Ser205, Gly128, Thr129, Tyr83, Asn75, Ile51 residues at 40 uM relative to control; settings: not given
Sequence (P14618 2-531 limits assumed): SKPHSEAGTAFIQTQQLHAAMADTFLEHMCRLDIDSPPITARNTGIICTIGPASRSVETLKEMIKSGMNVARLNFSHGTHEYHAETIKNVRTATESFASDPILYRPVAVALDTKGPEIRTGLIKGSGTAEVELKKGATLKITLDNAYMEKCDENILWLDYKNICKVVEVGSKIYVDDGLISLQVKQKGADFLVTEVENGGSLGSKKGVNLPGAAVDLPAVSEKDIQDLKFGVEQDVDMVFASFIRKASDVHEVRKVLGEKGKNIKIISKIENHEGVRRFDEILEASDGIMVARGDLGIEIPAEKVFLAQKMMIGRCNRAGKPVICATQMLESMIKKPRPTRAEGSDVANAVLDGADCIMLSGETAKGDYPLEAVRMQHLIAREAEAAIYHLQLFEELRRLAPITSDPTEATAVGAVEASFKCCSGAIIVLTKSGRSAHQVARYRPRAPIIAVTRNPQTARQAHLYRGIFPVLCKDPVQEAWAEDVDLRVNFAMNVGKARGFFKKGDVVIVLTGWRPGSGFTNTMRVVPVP

Sequence of Pyruvate kinase PKM (Homo sapiens), P14618 (P14618 whole entry): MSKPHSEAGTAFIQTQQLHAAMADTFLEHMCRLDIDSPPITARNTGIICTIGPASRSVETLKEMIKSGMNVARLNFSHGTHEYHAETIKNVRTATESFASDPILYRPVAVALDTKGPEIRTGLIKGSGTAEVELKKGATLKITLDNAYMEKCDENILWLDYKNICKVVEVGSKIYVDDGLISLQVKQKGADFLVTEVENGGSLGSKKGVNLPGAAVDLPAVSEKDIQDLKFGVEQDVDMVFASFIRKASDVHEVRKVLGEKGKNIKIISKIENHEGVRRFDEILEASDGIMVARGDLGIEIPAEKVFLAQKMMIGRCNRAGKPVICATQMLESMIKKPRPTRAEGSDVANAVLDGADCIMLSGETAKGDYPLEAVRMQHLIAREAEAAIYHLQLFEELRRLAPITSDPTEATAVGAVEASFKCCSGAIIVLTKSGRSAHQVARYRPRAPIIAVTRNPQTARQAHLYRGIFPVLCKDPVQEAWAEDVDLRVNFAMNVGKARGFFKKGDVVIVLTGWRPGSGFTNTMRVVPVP

Which inhibition does the source give for `O=C(O[C@@H]1Cc2c(O)cc(O)cc2O[C@@H]1c1cc(O)c(O)c(O)c1)c1cc(O)c(O)c(O)c1` here?
The inhibition was 49%.

tested on: CCc1nnc(SCc2ccccc2F)c2cc3sc(C)cc3n12; assay: Binding affinity to PKM2 (unknown origin) assessed as Michaelis-constant; settings: Homo sapiens; filed as activator

With “Pyruvate kinase PKM (Homo sapiens), P14618” as the compound, how does the Km read?
Its Km is 480 µM.

target: Pyruvate kinase PKM (Homo sapiens) (UniProt P14618); assay: Inhibition of PKM2 (unknown origin); design: concentration or dose not given beside the values; settings: concentration not given here

With `C[C@H](N)C(=O)O` as the compound, how does the inhibition read?
Its inhibition is 100%.

For `CC(C)[C@H](N)C(=O)O`, which inhibition is on record?
Its inhibition is 65%.

How did the inhibition turn out when `N[C@@H](CS)C(=O)O` was run?
Its inhibition is 20%.

For `O=C(O)[C@@H]1CCCN1`, which inhibition is on record?
The inhibition was 65%.

`CC[C@H](C)[C@H](N)C(=O)O` was tested. Which inhibition did it give?
The inhibition was 20%.

With `N[C@@H](Cc1c[nH]c2ccccc12)C(=O)O` as the compound, how does the inhibition read?
The inhibition was 65%.

Which inhibition does the source give for `N[C@@H](Cc1ccccc1)C(=O)O` here?
Its inhibition is 100%.

`C[C@@H](O)[C@H](N)C(=O)O` was tested. Which inhibition did it give?
The inhibition was 20%.

For `CSCC[C@H](N)C(=O)O`, which inhibition is on record?
Its inhibition is 65%.
